Test results: patent US7947280B2 (priority 2003, dated 2011)
Where “and” joins values, the source holds several entries; their conditions need not be identical. Equal values may be shown once.

Experiments:
C57B1/6 mice = system: C57B1/6 mice
Protocol: Pressure-volume hemodynamics. Pressure-volume hemodynamics were assessed using the Aria System (Millar Instruments, Houston, Tex.). Male C57B1/6 mice aged 8-12 weeks (n=10) were anesthetized with 1-2% isoflurane in oxygen. The internal jugular vein was cannulated with PE tubing and a 10% albumin solution infused at 5 μl/min following a bolus of 150 μl over 5 minutes. After tracheotomy, a 19G cannula was inserted into the trachea and the animal was ventilated at a tidal volume of 200 μl at 100 breaths per minute (Harvard Apparatus, Holliston, Mass.). Mice were warmed throughout the procedure and constantly monitored for depth of anesthesia. Following an incision just dorsal to the xyphoid cartilage, the diaphragm was visualized from below, and after diaphragmatic incision, the left ventricular apex was visualized. The pressure-volume catheter was then inserted along the long axis of the left ventricle, from where it was adjusted to obtain rectangular shaped pressure-volume loops. Appropriate position was verified post mortem (FIG. 1, Panel D). […] Signals from the catheter were digitized using the Powerlab system (ADInstruments, Colorado Springs, Colo.) and stored for offline analysis using the PVAN software (Pressure-volume ANalysis, Millar Instruments, Houston, Tex.).
Data Analysis. Data were analyzed using Student's t statistic (paired) or the repeated measures analysis of variance using the post hoc comparison of Fisher (NCSS 2002). Exact p values are reported for all comparisons.

eNOS protein = conditions: experimental groups incl. apelin treated animals
Protocol: Immunoblotting. Lung homogenate (n≧3 per group) were homogenized on ice for 20 seconds in lysis buffer (50 mmol/L Tris, pH 7.5, 150 mmol/L NaCl, 0.1% SDS, 0.5% deoxycholate, 1% Nonidet P-40) containing protease inhibitors (Complete; Boehringer Mannheim) and 1 mmol/L phenylmethylsulfonyl fluoride. Protein lysates (8 μg) were resolved using SDS-PAGE and transferred to polyvinylidene difluoride membranes. Membranes were incubated with a 1:2000 dilution of mouse anti-eNOS monoclonal antibody (Cell Signaling, Location), followed by a 1:2500 dilution of rabbit anti-mouse horseradish peroxidase-conjugated secondary antibody (Promega). Protein bands were visualized by chemiluminescence.

[1] = system: isolated human saphenous vein; conditions: Katugampola et al.; cited from earlier work
[2] = system: AT1R and APJ heterodimerization; experiment: AT1R-APJ receptor heterodimerization by immunoprecipitation; assay type: cell-based; conditions: addition of apelin
Protocol: Cells were immediately lysed.
Immunoprecipitation and Western Blotting Immunoprecipitation was performed as previously described (REF). In brief, cells were lysed using 10× Cell Lysis Buffer (Cell Signaling Technologies CITY). Lysates were precleared with protein G and immunoprecipitation was performed with the respective antibodies at concentration of 1 mg/mL for 24 hrs at 4C. Protein G agarose was added and incubated for additional 2 hours. Western blotting on SDS-PAGE gels were performed as previously described, and the bands were visualized using the enhanced chemiluminescence system (Amersham Biosciences).

ApoE-KO mice [3] = experiment: AngII induced abdominal aortic aneurysm formation model; assay type: in vivo, mouse
Protocol: (§1) Animals. Mice were maintained in temperature-controlled (20° C. to 22° C.) environment with a 12-hour light-dark cycle. Sterile water and standard chow diet were available ad libitum. All mice were C57BL/6J ApoE-KO male mice (Jackson Laboratories, Bar Harbor, […].) between the ages of 8-12 weeks. […] Animal procedures were carried out in accordance with the Institutional Review Board Guidelines at Stanford University.
Abdominal aortic aneurysm formation, sudden death and vein graft procedure. […] Abdominal aortic aneurysm was defined as ≧50% enlargement of the maximal abdominal aorta diameter. Mice that were found dead without any preceding signs of suffering were defined as sudden death.

[4] = system: superoxide production in aortic sections; experiment: Dihydroethidium oxidative fluorescence microtopography; assay type: in vivo, mouse
Protocol: Oxidative fluorescent microtopography. Superoxide was detected in the layers of the vessel wall using fluorescent probe dihydroethidium as described previously. Fresh segments of upper descending thoracic aorta were frozen in OCT compound. […] Molecular Probes). Images were obtained on a confocal microscope (Bio-Rad MRC-1024 laser; filter settings: excitation filter 488 nm; emission filter 550 nm). 2-hydroxyethidium fluorescence was measured from high power (60× mag) images. Endothelium by quantifying fluorescence (intensity×area) on the luminal side of the internal elastic lamina, media between the internal and external elastic lamina, and adventitia outside the external elastic lamina. Quantification was performed using Image Pro Plus software (Media Cybernetics, Silver Springs, Md.). Medial Analysis was performed blind to the samples identity.

ApoE-KO mice [5] = experiment: Atherosclerotic lesion analysis in ApoE-KO mice; assay type: in vivo, mouse; conditions: for reduction of total lesion burden: co-infusion of Apelin 2 mg/kg/day with AngII 1.4 mg/kg/day
Protocol: as §1, with “Sterile water and standard chow diet were available ad libitum.” left out
Tissue preparation, histology and lesion quantification. Mice were euthanized 28 days following implantation of osmotic mini-pumps. The thoracic cage was removed and the animal perfused with phosphate buffered saline solution (PBS) for 2 minutes. The entire aorta and vein graft were exposed and the periadventitial tissue and scar tissue dissected and removed. Subsequently mice were perfusion fixed in situ with 4% phosphate-buffered paraformaldehyde. In some animals aorta and lung were removed fresh for biochemical assays.
Atherosclerotic Lesion Analysis Atherosclerosis lesion area was determined as described previously. Briefly, the arterial tree was perfused with PBS (pH 7.3) and then perfusion fixed with phosphate-buffered paraformaldehyde (3%, pH 7.3). The heart and full length of the aorta-to-iliac bifurcation was exposed and dissected carefully from any surrounding tissues. Aortas were then opened along the ventral midline and dissected free of the animal and pinned out flat, intimal side up, onto black wax. Aortic images were captured with a digital camera (DMC1) mounted on a Leica MZ6 stereomicroscope and analyzed using Fovea Pro (Reindeer Graphics, Asheville, N.C.). Percent lesion area was calculated as total lesion area divided by total surface area.

[6] = post 100 nM Apelin-12 infused at 5 μl/min for 20 minutes

apelin
Time constants of relaxation (C57B1/6 mice; after apelin infusion): not different
slope and intercept of linear fit of end diastolic pressure-volume relationship (C57B1/6 mice; after apelin infusion): not different
Arterial elastance (C57B1/6 mice; following apelin infusion): did not change significantly
dP/dtmax (C57B1/6 mice; following apelin infusion): did not change
end systolic pressure (C57B1/6 mice; following apelin infusion): reduced
EDV mean (C57B1/6 mice; [6]): 26.2
Emax (time varying elastance) (C57B1/6 mice; [6]): 12.7±3.1 and 12.7
HR mean (C57B1/6 mice; [6]): 353
PRSW intercept mean (C57B1/6 mice; [6]): 11.3
LV end diastolic volume (C57B1/6 mice; post apelin infusion): 26.2±5.9 RVU
constant k1 of monoexponential fit LVEDP=k1*exp(k2*LVEDV) (C57B1/6 mice; post apelin infusion): 0.111±0.002
exponential k2 of monoexponential fit LVEDP=k1*exp(k2*LVEDV) (C57B1/6 mice; post apelin infusion): 0.69±0.41
heart rate (C57B1/6 mice; post apelin infusion, invasive study): 353±33 bpm
eNOS protein levels in aortas (eNOS protein): no difference
effect on isolated human saphenous vein [1]: potently contracts
AngII induced receptor heterodimerization [2]: did not affect
animals with aneurysm formation (ApoE-KO mice [3]; AngII plus apelin treatment): 1/12
incidence of AAA formation (ApoE-KO mice [3]; apelin added to AngII infused mice): 8%
incidence of AAA formation within 4 weeks (ApoE-KO mice [3]; single agent infusion): did not observe AAA formation
aortic superoxide production vs AngII alone ([4]; apelin added to AngII treated mice): significantly reduced
Total aortic fluorescence, lower than saline treated controls ([4]; apelin treated mice): 3 fold
reduction in aortic root atherosclerotic burden vs saline treated controls (trend) (ApoE-KO mice [5]; apelin 2 mg/kg/day, 4 weeks): 25%
reduction of total lesion burden (ApoE-KO mice [5]; 4 weeks): mitigated
reduction of total lesion burden (ApoE-KO mice [5]; 4 weeks, listed as Apelin): 75%
progression of atherosclerosis in aortic root (FIG. 17) (ApoE-KO mice [5]; osmotic minipump during high fat diet exposure): do not alter
